Entries after “also recorded” stand apart in the source; their conditions may differ. Counter-ions that a name gives are not always drawn.
Experiments:
[1] = parameters: method as in Prestwick Chemical Library; details: solvents; library annotation, ref Prestwick Chemical Library; cited from earlier work
[2] = parameters: method as in Prestwick Chemical Library; details: library annotation, ref Prestwick Chemical Library; cited from earlier work
[3] = test system: Tg(fli1a:nEGFP)^y7 zebrafish embryos; test: Primary high-content heart rate screen of the Prestwick Chemical Library (HeartBeat software v.2.1); type: in vivo; details: Tg(fli1a:nEGFP)^y7, zebrafish, in vivo, 24 h, 20 µM
Text: Acquired image series were preprocessed and analyzed using the previously published HeartBeat software v.2.1 and provided scripts ([Gierten et al., 2020]). For increased comparability between experiments, each quantitative HR value (beats per minute) was divided by the mean of the DMSO controls from the respective experiment. This procedure minimizes variation and creates specific fold-change values that are z-score normalized in the next step. A 90% CI was used to reduce the probability of false-negative results. Finally, data from compounds with insufficient N and known aquatic toxicity were removed.
Based on a previously established high-throughput screening pipeline, we performed a high-content drug screen in zebrafish for cardiovascular modulators ([Poureetezadi et al., 2014]; [Gierten et al., 2020]; [Westhoff et al., 2020]). […] About 98% of the library’s compounds are approved by the Food and Drug Administration (FDA), European Medicines Agency (EMA) or other regulatory agencies. The drug library was screened at a concentration of 20 µM for 24 h until 48 hpf using the transgenic zebrafish line Tg(fli1a:nEGFP)^y7. Subsequently, BF images and videos were captured at 2 dpf to assess gross morphology. HR was analyzed with the previously published tool HeartBeat (v.2.1) to identify potential hit compounds. A 90% CI threshold for effect sizes of ±1.64 was used to reduce false-negative results. […] The Open Targets platform and the Mayo Clinic Drugs and Supplements Database were systematically searched for compound names and common synonyms ([Drugs and Supplements, 2022]; [Open Targets, 2022]). The Medical Subject Headings (MeSH) terms “compound name” and “heart rate” were applied to NCBI PubMed literature research before the first five pages of publications sorted by relevance were screened for relevant information. Furthermore, compounds were filtered for unknown targets (n = 3), FDA black box warning (n = 6) and aquatic toxicity (n = 4). […] Therefore, compounds with n < 3 were excluded (n = 7).

[4] = test system: zebrafish embryos; test: Manually assessed pericardial edema in treated zebrafish; type: in vivo; details: 20 µM; for Edema: Mild / Edema: Moderate / Edema: No edema / Edema: Severe: number of fish, Tg(myl7:eGFP); for Pericardial edema severity: myl7:eGFP zebrafish
Text: FIGURE 4 Quantitative data analysis with pyHeart4Fish. […] (A) The left graph presents the detected heart rate derived from the fast fourier transformation (FFT). […] (B) Percentual data on the severity of manually assessed pericardial edema in treated Tg(myl7:eGPF)^twu34/+ zebrafish. (C) The relative contractility derived from percentual size changes of each heart chamber (left graph). Approximate ejection fraction determined by chamber volume changes (right graph). […] The number of fish analyzed is shown in brackets after the treatment condition. Dotted gray lines indicate z-scores of ±1.96 and statistical significance with an alpha error of 5%.

[5] = test system: Tg(myl7:eGFP)^twu34/+ zebrafish embryos; details: 20 µM; for Embryos with Mobitz type II atrioventricular block (AVB): Tg(myl7:eGFP)^twu34/+, zebrafish, in vivo, 24 h
Description: Nevertheless, it is advised that arrhythmia types are confirmed manually, as was done in this study.

[6] = test system: zebrafish embryos; test: Toxicity score (ToxScore) at increasing compound concentrations; details: for Concentration-dependent toxic effects: 5–80 µM; for ToxScore: 80 µM
Description: (§1) Embryos were dechorionated at 21 hpf using 0.22 mg/ml pronase (Merck Chemicals) for 12 min. Then, embryos were carefully washed three times with egg water and transferred into a 96-deep-well plate. After incubation at 28°C for 3 h, excess water was removed with a glass capillary and exchanged with 100 µL/well of 20 µM compound solution from the Prestwick Chemical Library (Prestwick Chemicals, France) in 0.2% DMSO (v/v) in egg water. […] Subsequently, embryos were exposed to compounds for 24 h at 28°C in the dark to enable testing of light-sensitive compounds. Solutions were removed at 48 hpf before wells containing embryos were washed three times with system water. Then, treated embryos were transferred into 12-well plates containing 1 ml 0.03% tricaine in system water (Sigma-Aldrich, Germany). Testing different concentrations (5–80 µM) of compounds and their respective controls followed the above protocol.
Embryos that were deceased and not intact were assigned a max. ToxScore value of 5.

[7] = test system: Tg(myl7:eGFP)^twu34/+ zebrafish embryos; test: Chamber-specific quantitative heart phenotyping with pyHeart4Fish; details: 20 µM; for Effect on heart rate / Effect on heart function / morphology: contractility, conduction, arrhythmia, HS, EF: vs DMSO controls; for Arrhythmia / Conduction defect: number of fish;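 on all read-outs here: embryos exposed 24 h from 24 hpf in 0.2% DMSO egg water, tricaine-anaesthetised, heartbeat videos imaged at 470 nm and hearts analysed chamber by chamber from pixel-intensity beat curves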
Description: as §1
Oriented embryos in 96-well plates were automatically imaged using an [sequence] Imaging Machine ([sequence] Imaging, Germany) widefield microscope. Z-stacks of 10 slices (dZ = 15 µm) were acquired in brightfield (BF) and 470 nm channels with a 4×0.13 numerical aperture objective. The focal plane was detected in the 470 nm channel using a course and secondary fine software autofocus. BF integration time was fixed at 20 ms exposure time and 55% LED intensity. The exposure time for the 470 nm channel was set to 10 ms with a 10% LED intensity. Heartbeat videos of 6 s at 6 frames/second (f/s) were acquired with a time-lapse at a 0 s interval in the focus plane acquired after secondary autofocus using the previously described integration and exposure settings with a 10×0.25 numerical aperture objective.
Hearts are analyzed chamber-specifically via the user-assisted region of interest (ROI) selection. Cardiac morphology parameters (HS and shape) are extracted as the median of the first six images/frames. Raw data of heartbeat curves for the atrium and ventricle are derived from the sum of pixel intensities and normalized chamber areas. Frequencies (in s^-1) of atrium and ventricle contraction are obtained by applying sine-curve fitting or fast Fourier transformation (FFT) using the SciPy modules “optimize.curve_fit” and “fft.rfft/fft.rfftfreq”, respectively ([Virtanen et al., 2020]). Curve fitting is performed with a maximum of 30 iterations while increasing the frequencies of the fitted sine function. The best fit is selected using the correlation coefficient between the raw data and the fitted function implemented in the NumPy package. A fitted sine function and fitting score are also determined for a truncated signal (first quarter), and the best-fitted sine function is kept to account for an unstable heartbeat signal. In the case of FFT, the first harmonic of the FFT signal is used as the frequency of the atrium or ventricle contraction. Analysis with pyHeart4Fish provides heartbeat videos in GIF format, heartbeat curves as PNG/PDF files and a data sheet containing meta information and cardiac parameters.

[8] = test system: zebrafish embryos; test: Gross morphology / development of treated zebrafish 2 dpf (brightfield); type: in vivo; details: 20 µM, 2 dpf
Description: FIGURE 5 Morphology of treated zebrafish 2 dpf. An overview of the gross phenotypes of treated zebrafish 2 days post-fertilization. All compounds were dissolved in DMSO; therefore, DMSO served as the negative control. NaCl served as the salt control. The effects of atorvastatin treatment on zebrafish embryos were previously established; thus, this drug was used as a positive control for cardioactivity. The aquatic toxic compound enilconazole was used as the toxic positive control. […] The black arrow in the image of iopanoic acid-treated zebrafish embryo indicates caudal fin deformity. The scale bar indicates 500 µm in overview brightfield images and 150 µm in fluorescence images. (a) Atrium; (v) ventricle.

[9] = test system: zebrafish embryos; details: 71 μM, ref Yang et al., 2014; cited from earlier work
[10] = test system: zebrafish embryos; test: Manually assessed pericardial edema in treated zebrafish; type: in vivo; details: 20 µM, fli1a:eGFP zebrafish

Compound | Lit. Solubility [1] | Z-score Heart rate [3] | Edema: Mild [4] | Edema: Moderate [4] | Edema: No edema [4] | Edema: Severe [4] | Effect on heart rate [7] | Arrhythmia [7] | Conduction defect [7] | further results
Cc1cccc(CN2CCN(C(c3ccccc3)c3ccc(Cl)cc3)CC2)c1.Cl.Cl (stereo not shown) [Meclozine dihydrochloride] | CHCl3, pyridine |  |  |  |  |  |  |  |  | Metabolism: tissue [2]: Liver
COc1ccc(CCN2CCC(Nc3nc4ccccc4n3Cc3ccc(F)cc3)CC2)cc1 [Astemizole] | CH2Cl2, MeOH | -7.189 z-score |  |  |  |  |  |  |  | Metabolism: tissue [2]: Liver
CNCC[C@@H](Oc1cccc2ccccc12)c1cccs1 [(R)-Duloxetine HCl] |  |  | 1 | 3 | 0 | 2 | not significantly decreased | 0 | 2 | Treated embryos with atrial flutter [5]: 33%; Fraction of embryos with atrial flutter ([5]; manual analysis of heartbeat videos): one-third; Concentration-dependent toxic effects ([6]; listed as DLX): dose-dependently increased the ToxScore; also recorded: complete lethality at 80 µM
C[C@@H]1C[C@@H]([C@H](O)CC2CC(=O)NC(=O)C2)C(=O)[C@@H](C)C1 [Cycloheximide] |  |  | 0 | 3 | 1 | 3 |  | 3 | 0 | Pericardial edema severity [4]: moderate to severe pericardial edema; Gross morphology / developmental and teratogenic effects ([8]; listed as CHX): bent tails; also recorded: development was delayed; Effect on ventricular volume [9]: decreased ventricular volume; Concentration-dependent toxic effects [6]: doses higher than 40 µM induced cardiac arrest and severe pericardial edema
CN(C)CCN(Cc1cccs1)c1ccccn1 [Methapyrilene HCl, methapyrilene HCl] | H2O, EtOH, CHCl3 | -2.21 z-score | 1 | 2 | 1 | 1 | decreased HR | 2 | 2 | Embryos with Mobitz type II atrioventricular block (AVB) [5]: 50%
CCC(Cc1c(I)cc(I)c(N)c1I)C(=O)O (stereo not shown) [Iopanoic acid] |  |  | 2 | 1 | 1 | 0 |  | 0 | 0 | Pericardial edema severity [4]: mild edema; Gross morphology / developmental and teratogenic effects ([8]; listed as IOP): developmental delay; also recorded: caudal fin deformities; Pericardial edema severity [10]: moderate edema; ToxScore [6]: 4.4; Effect on heart function / morphology: contractility, conduction, arrhythmia, HS, EF [7]: Contractility, HS and EF were not affected
CN(C)CCN(Cc1ccc(Cl)cc1)c1ccccn1 [Chloropyramine HCl, chloropyramine HCl] | DMSO | -2.971 z-score | 4 | 7 | 0 | 0 | decreased HR | 0 | 2 | Embryos with Mobitz type II atrioventricular block (AVB) [5]: 18.2%; ToxScore [6]: 4.8; Effect on heart function / morphology: contractility, conduction, arrhythmia, HS, EF [7]: a slower HR in the ventricle than in the atrium

Reference: paper PMC10126419, “pyHeart4Fish: Chamber-specific heart phenotype quantification of zebrafish in high-content screens” (Frontiers in Cell and Developmental Biology, 2023)
